What was measured:
amyloid-β = details: mice, alum adjuvant, five boosts (Agadjanyan et al 2005); cited from earlier work
Aβ40 = details: immunized mice (Agadjanyan et al 2005); cited from earlier work
synthetic Aβ40 = assay: Effect of booster doses: mouse serums titered on synthetic Aβ40; type: in vivo; details: three mice
Method: After immunizations with the immunogens of Example 1, serums were assayed to determine anti-Aβ peptide titers by conventional ELISA methods. […] After thorough washing with 0.1% triton X 100 buffer, blocking with 1% bovine serum albumin (BSA) and rewashing, serum dilutions were applied and incubated at 22° C. for 1 hour. After incubation, the plates were thoroughly washed with triton-X 100 buffer again and 1/10,000 goat anti-mouse IgG-horseradish peroxidase (HRP) conjugate (or the appropriate reagent for rat or rabbit) was applied. The plates were then incubated for 1 hour at 22° C. then washed thoroughly and developed with ABTS for 45 minutes at room temperature on a shaker table. Absorbance was measured at 405 nm. Control wells containing 1/60000 normal mouse serum were measured; and the reciprocal of the […] dilution of test serums with an OD greater than the mean+8 SDs of controls was taken as the titer.
In an experiment to determine the effect of booster dosages, three mice were immunized with experimental immunogen, Pam2C-SSQYIKANSKFIGITELDAEFRHDSGYEVHHQ-amide (SEQ ID NO: 13) in a protocol of a 1 mg intraperitoneal (IP) priming dose at Day 0, followed by a 1 mg IP booster at Week 3, and a 1 mg IP second booster at Week 6. Mice were bled at weeks 5 and 8. The serums are titered on synthetic Aβ40. […]

Aβ40, sequence (P05067 672-711): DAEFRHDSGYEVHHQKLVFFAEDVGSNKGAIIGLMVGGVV

Substance	maximal titer (amyloid-β)	T cell response to Aβ40 (Aβ40)	GMT at 5 weeks (synthetic Aβ40; 1 mg IP Day 0, boosters Week 3 and Week 6, bled week 5) [million]	GMT at 8 weeks (synthetic Aβ40; 1 mg IP Day 0, boosters Week 3 and Week 6, bled week 8) [million]
Aβ33-MAP: Aβ33 synthesized as a multiple antigenic peptide (Agadjanyan et al 2005)	64,000	demonstrable T cell response		
Pam2C-SSQYIKANSKFIGITELDAEFRHDSGYEVHHQ-amide [Pam2-QYIK-AB1-15]			3	8
